In US20150038430A1, “THERAPEUTIC PEPTIDOMIMETIC MACROCYCLES” (AILERON Therapeutics, Inc., priority 2008, published 2015):

Assays:
BAX = target: T1, BAX (Homo sapiens, UniProt Q07812); experiment: Immunoprecipitation in MM1S cell lysates; type: binding; conditions: multiple myeloma (MM1S) cell lysates
T1 construct: endogenous in cells; host or cells: MM1S multiple myeloma cells (lysate)
Protocol: It is possible to measure binding of peptides or peptidomimetic macrocycles to their natural acceptors in cell lysates or intact cells by immunoprecipitation and pull-down experiments. For example, intact cells are incubated with fluoresceinated (FITC-labeled) or biotinylated compounds for 4 hrs in the absence of serum, followed by serum replacement and further incubation that ranges from 4-18 hrs. Alternatively, cells can be incubated for the duration of the experiment in Opti-MEM (Invitrogen). Cells are then pelleted and incubated in lysis buffer (50 mM Tris [pH 7.6], 150 mM NaCl, 1% CHAPS and protease inhibitor cocktail) for 10 minutes at 4° C. 1% NP-40 or Triton X-100 may be used instead of CHAPS. Extracts are centrifuged at 14,000 rpm for 15 minutes and supernatants collected and incubated with 10 μl goat anti-FITC antibody or streptavidin-coated beads for 2 hrs, rotating at 4° C. followed by further 2 hrs incubation at 4° C. with protein A/G Sepharose (50 μl of 50% bead slurry).). No secondary step is necessary if using streptavidin beads to pull down biotinylated compounds. […]

Bcl-xL = Bcl-xL (Homo sapiens, UniProt Q07817); experiment: Protein-ligand binding experiment (SEC-LC-MS); conditions: 1 μM macrocycle plus 5 μM Bcl-xL, 60 min room temperature
Chain of Bcl-xL (Q07817 whole entry): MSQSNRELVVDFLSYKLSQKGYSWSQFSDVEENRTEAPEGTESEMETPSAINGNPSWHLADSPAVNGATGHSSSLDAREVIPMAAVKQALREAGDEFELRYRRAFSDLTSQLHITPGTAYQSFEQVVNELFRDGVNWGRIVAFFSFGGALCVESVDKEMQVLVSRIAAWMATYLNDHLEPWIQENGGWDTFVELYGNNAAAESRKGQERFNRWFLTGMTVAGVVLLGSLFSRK
Protocol: Protein-ligand binding experiments were conducted according to the following representative procedure outlined for a system-wide control experiment using 1 μM SP-4 plus 5 μM Bcl-xL. A 1 μl DMSO aliquot of a 40 μM stock solution of peptidomimetic macrocycle was dissolved in 19 μl of PBS (Phosphate-buffered saline: 50 mM, pH 7.5 Phosphate buffer containing 150 mM NaCl). The resulting solution was mixed by repeated pipetting and clarified by centrifugation at 10 000 g for 10 min. To a 4 μl aliquot of the resulting supernatant was added 4 μl of 10 μM BCL-xL in PBS. Each 8.0 μl experimental sample thus contained 40 pmol (1.5 μg) of protein at 5.0 μM concentration in PBS plus 1 μM peptidomimetic macrocycle and 2.5% DMSO. Duplicate samples thus prepared for each concentration point were incubated for 60 min at room temperature, and then chilled to 4° C. prior to size-exclusion chromatography-LC-MS analysis of 5.0 μL injections. Samples containing a target protein, protein-ligand complexes, and unbound compounds were injected onto an SEC column, where the complexes were separated from non-binding component by a rapid SEC step. The SEC column eluate was monitored using UV detectors to confirm that the early-eluting protein fraction, which elutes in the void volume of the SEC column, was well resolved from unbound components that are retained on the column. […]

PC3 = type: cell-based, human; conditions: 24 h
Protocol: (§1) Cell viability assays shown in FIGS. 34-52 were performed according to a similar protocol. Cells were split at optimal cell density a day prior to the initiation of the study. The next day, cells were washed twice in serum-free Opti-MEM media and 4000 cells/well were added to each well in a final volume of […] Opti-MEM. For serum-free experiments, macrocycles were diluted from 2 mM stocks (100% DMSO) in sterile water to prepare 400 μM working solutions. A 40 μM solution was then generated by ten-fold dilution in assay buffer. The macrocycle and controls were then serially diluted two-fold in assay buffer in dosing plates to provide concentrations between 1.2 and 40 μM, respectively. For experiments in 2% human serum, macrocycles were diluted from 10 mM stocks (100% DMSO) in sterile water to prepare 1 mM working solutions. A 100 μM solution was generated by ten-fold dilution in assay buffer. The macrocycles and controls were then serially diluted two-fold in assay buffer in dosing plates to provide concentrations between 3 and 100 μM, respectively. 50 μl of each dilution was then added to the appropriate wells of the test plate to achieve final concentrations of the macrocycle between 0.6 to 20 μM (for serum free experiment) or 1.5 to 50 μM (for 2% serum experiment), respectively. Controls included wells without macrocycles containing the same concentration of DMSO as the macrocycle-containing wells, wells containing 0.1% Triton X-100, and wells containing no cells. Plates were incubated for 24 hours at 37° C. in a humidified 5% CO2 atmosphere. At the end of a 24 hr incubation period, a CellTiter-Glo Luminescent Cell Viability Assay was performed according to manufacturer's instructions (Promega, catalog #G7571) and the luminescence was measured using a BIO-TEK synergy HT Plate reader. Values were plotted as percent viable, i.e. as a percentage of the negative control value (derived from cells exposed to DMSO only). All assays were performed in duplicate.
(§2) The following tables summarize the EC50 values (μM) observed with peptidomimetic macrocycles of the invention in various cell lines: […]

SEMK2 = type: cell-based, human; conditions: 24 h
Protocol: as §1, §2

DHL-6 = type: cell-based, human; conditions: 24 h
Protocol: as §1, §2

RS4;11 = type: cell-based, human; conditions: 24 h
Protocol: as §1, §2

NCI-H82 (SCLC-MCL1+) = type: cell-based, human; conditions: 24 h
Protocol: as §1, §2

MM1S = type: cell-based, human; conditions: 24 h
Protocol: as §1, §2

Jurkat = type: cell-based, human; conditions: 24 h
Protocol: as §1, §2

MDA-MB231-Met = type: cell-based, human; conditions: 24 h
Protocol: as §1, §2

OVCAR8 = type: cell-based, human; conditions: 24 h
Protocol: as §1, §2

A375 = type: cell-based, human; conditions: 24 h
Protocol: as §1, §2

Raji = type: cell-based, human; conditions: 24 h
Protocol: as §1, §2

Molt-4 = type: cell-based, human; conditions: 24 h
Protocol: as §1, §2

T1 sequence (Q07812 whole entry): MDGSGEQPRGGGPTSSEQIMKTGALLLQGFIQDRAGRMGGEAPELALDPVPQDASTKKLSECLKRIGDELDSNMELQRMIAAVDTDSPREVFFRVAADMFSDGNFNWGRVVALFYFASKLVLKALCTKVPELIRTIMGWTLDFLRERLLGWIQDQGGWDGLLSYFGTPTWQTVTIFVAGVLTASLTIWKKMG

detection of protein-ligand complex with Bcl-xL (Bcl-xL): detection of the protein-ligand complex | EC50 (PC3): 5 µM | EC50 (SEMK2): 4 µM | EC50 (DHL-6): 3.8 µM | EC50 (RS4;11): 10 µM | EC50 (NCI-H82 (SCLC-MCL1+)): 4.9 µM | EC50 (MM1S): 4.9 µM | EC50 (Jurkat): 1.6 µM | EC50 (MDA-MB231-Met): 8.5 µM | EC50 (OVCAR8): 20 µM | EC50 (A375): 8 µM | EC50 (Raji): 9 µM | EC50 (Molt-4): 2.2 µM
SMILES: CC[C@H](C)[C@H](NC(C)=O)C(=O)N[C@@H](Cc1c[nH]c2ccccc12)C(=O)N[C@H](C(=O)N[C@@H](C)C(=O)N[C@@H](CCC(N)=O)C(=O)N[C@@H](CCC(=O)O)C(=O)N[C@@H](CC(C)C)C(=O)N[C@@H](CCCNC(=N)N)C(=O)NC1(C)CCCC=CCCCC(C)(C(=O)N[C@@H](Cc2ccccc2)C(=O)N[C@@H](CC(N)=O)C(=O)N[C@@H](C)C(=O)N[C@@H](Cc2ccc(O)cc2)C(=O)N[C@@H](Cc2ccc(O)cc2)C(=O)N[C@@H](C)C(=O)N[C@@H](CCCNC(=N)N)C(=O)N[C@@H](CCCNC(=N)N)C(N)=O)NC(=O)[C@H](CC(=O)O)NC(=O)CNC(=O)[C@H]([C@@H](C)CC)NC1=O)[C@@H](C)CC (some centres unmarked) [SP-4]
binding to pro-apoptotic target protein BAX (BAX): sequence-specific and structure-specific binding
